Data: ChEMBL document CHEMBL4431337, “Synthesis and bioactivities of novel pyrazole oxime derivatives containing a 1,2,3-thiadiazole moiety” (Bioorg Med Chem Lett, 2016)

How the values were obtained:
[1] = system: HCT-116; experiment: Cytotoxicity against human HCT116 cells assessed as inhibition of cell growth after 48 hrs by MTT assay; type: functional, cell-based; conditions: HCT-116, 48 h
[2] = system: PANC-1; experiment: Cytotoxicity against human PANC1 cells assessed as inhibition of cell growth after 48 hrs by MTT assay; type: functional, cell-based; conditions: PANC-1, 48 h
[3] = system: SGC-7901; experiment: Cytotoxicity against human SGC7901 cells assessed as inhibition of cell growth after 48 hrs by MTT assay; type: functional, cell-based; conditions: SGC-7901, 48 h
[4] = system: Tetranychus cinnabarinus; experiment: Acaricidal activity against Tetranychus cinnabarinus assessed as mortality at 200 ug/ml pre-incubated with mite-infested Sieva bean plants for 3 secs and measured 48 hrs post dose; type: functional
[5] = system: Aphis craccivora; experiment: Insecticidal activity against Aphis craccivora assessed as mortality at 200 ug/ml pre-incubated with horsebean shoot with aphids for 2 secs and measured 48 hrs post dose by foliar application method; type: functional
[6] = system: Plutella xylostella; experiment: Insecticidal activity against Plutella xylostella assessed as mortality at 200 ug/ml pre-incubated with cabbage leaves for 2 to 3 secs and measured 48 hrs post dose by leaf disc assay; type: functional; conditions: foliar
[7] = system: Huh-7; experiment: Cytotoxicity against human HuH7 cells assessed as inhibition of cell growth after 48 hrs by MTT assay; type: functional, cell-based; conditions: Huh-7, 48 h
[8] = system: Plutella xylostella; experiment: Insecticidal activity against Plutella xylostella assessed as mortality at 100 ug/ml pre-incubated with cabbage leaves for 2 to 3 secs and measured 48 hrs post dose by leaf disc assay; type: functional; conditions: foliar
[9] = system: Aphis craccivora; experiment: Insecticidal activity against Aphis craccivora assessed as mortality at 50 ug/ml pre-incubated with horsebean shoot with aphids for 2 secs and measured 48 hrs post dose by foliar application method; type: functional
[10] = system: Aphis craccivora; experiment: Insecticidal activity against Aphis craccivora assessed as mortality at 100 ug/ml pre-incubated with horsebean shoot with aphids for 2 secs and measured 48 hrs post dose by foliar application method; type: functional
[11] = system: Plutella xylostella; experiment: Insecticidal activity against Plutella xylostella assessed as mortality at 50 ug/ml pre-incubated with cabbage leaves for 2 to 3 secs and measured 48 hrs post dose by leaf disc assay; type: functional; conditions: foliar

Structure (SMILES)	IC50 [1]	IC50 [2]	IC50 [3]	mortality at 200 µg/mL [4]	mortality at 200 µg/mL [5]	mortality at 200 µg/mL [6]	IC50 [7]	mortality at 100 µg/mL [8]	mortality at 50 µg/mL [9]	mortality at 100 µg/mL [10]	mortality at 50 µg/mL [11]
CCc1nnsc1CO/N=C/c1c(C)nn(C)c1Oc1ccc(OC(F)(F)F)cc1	12.5 µM	> 50 µM	13.6 µM	0%	0%	0%	> 50 µM				
Cc1cccc(Oc2c(/C=N/OCc3snnc3C)c(C)nn2C)c1	14.1 µM	> 50 µM	12.8 µM	0%	90%	84%	> 50 µM	0%	38%	70%	
CNC(=O)c1cc(Oc2ccc(NC(=O)Nc3ccc(Cl)c(C(F)(F)F)c3)cc2)ccn1 [SORAFENIB]		11.5 µM									
CCCc1nnsc1CO/N=C/c1c(C)nn(C)c1Cl	> 50 µM	> 50 µM	> 50 µM	0%	0%	0%	> 50 µM				
CCc1nnsc1CO/N=C/c1c(C)nn(C)c1Cl	> 50 µM	> 50 µM	> 50 µM	0%	0%	0%	> 50 µM				
Cc1nnsc1CO/N=C/c1c(C)nn(C)c1Oc1ccccc1Cl	42.5 µM	> 50 µM	> 50 µM	0%	15%	100%	> 50 µM	0%			
O=[N+]([O-])/N=C1\NCCN1Cc1ccc(Cl)nc1 [IMIDACLOPRID]					100%				100%	100%	
Cc1nnsc1CO/N=C/c1c(C)nn(C)c1Oc1cccc(F)c1F	6.56 µM	12.2 µM	25.7 µM	0%	19%	100%	10.2 µM	0%			
CCc1nnsc1CO/N=C/c1c(C)nn(C)c1Oc1ccc(C)cc1	> 50 µM	> 50 µM	19.8 µM	0%	0%	0%	> 50 µM				
CCCc1nnsc1CO/N=C/c1c(C)nn(C)c1Oc1ccccc1Cl	16.4 µM	> 50 µM	17.6 µM	0%	0%	0%	> 50 µM				
CCCc1nnsc1CO/N=C/c1c(C)nn(C)c1Oc1ccccc1C	15.7 µM	> 50 µM	16.3 µM	0%	0%	0%	> 50 µM				
Cc1nnsc1CO/N=C/c1c(C)nn(C)c1Oc1ccc(F)cc1	30.2 µM	> 50 µM	> 50 µM	0%	99%	100%	> 50 µM	0%	60%	90%	
CCCc1nnsc1CO/N=C/c1c(C)nn(C)c1Oc1ccc(Cl)cc1	19.2 µM	> 50 µM	18.6 µM	0%	0%	0%	> 50 µM				
Cc1nnsc1CO/N=C/c1c(C)nn(C)c1Oc1ccc(OC(F)(F)F)cc1	12.8 µM	> 50 µM	11.5 µM	80%	100%	50%	> 50 µM	0%	59%	85%	
Cc1ccc(Oc2c(/C=N/OCc3snnc3C)c(C)nn2C)cc1	13.8 µM	> 50 µM	12.8 µM	0%	100%	100%	> 50 µM	0%	58%	90%	
CCc1nnsc1CO/N=C/c1c(C)nn(C)c1Oc1ccccc1Cl	17.6 µM	> 50 µM	15.8 µM	0%	0%	0%	> 50 µM				
FC(F)(F)c1ccc(OCCCOc2c(Cl)cc(OCC=C(Cl)Cl)cc2Cl)nc1 [PYRIDALYL]						100%		100%			100%
CCCc1nnsc1CO/N=C/c1c(C)nn(C)c1Oc1ccc(F)cc1	7.06 µM	> 50 µM	8.64 µM	0%	0%	0%	> 50 µM				
Cc1nnsc1CO/N=C/c1c(C)nn(C)c1Cl	> 50 µM	26.6 µM	> 50 µM	0%	100%	100%	> 50 µM	0%	61%	85%	
O=c1[nH]cc(F)c(=O)[nH]1 [FLUOROURACIL]	29.5 µM		56.1 µM								
Cc1nnsc1CO/N=C/c1c(C)nn(C)c1Oc1ccc(C(C)(C)C)cc1	33.5 µM	> 50 µM	> 50 µM	0%	95%	100%	> 50 µM	0%	50%	80%	
Cc1nnsc1CO/N=C/c1c(C)nn(C)c1Oc1ccccc1OC(F)(F)F	> 50 µM	> 50 µM	> 50 µM	0%	22%	66%	> 50 µM	0%			
Cc1nnsc1CO/N=C/c1c(C)nn(C)c1Oc1cc(F)cc(F)c1	8.12 µM	> 50 µM	9.41 µM	0%	90%	100%	> 50 µM	0%	45%	75%	
Cc1nnsc1CO/N=C/c1c(C)nn(C)c1Oc1cccc(C(F)(F)F)c1	10.3 µM	> 50 µM	12.4 µM	0%	62%	45%	> 50 µM		31%	55%	
